Test results taken from patent US20070249590A1, “Substituted indolo[2,3-a]pyrrolo[3,4-c]carbazole compounds useful in treating kinase disorders” (priority 2005, published 2007).

target: T1, JAK3 (JH1 and JH2 domain) (Homo sapiens, UniProt P52333); experiment: JAK3 Kinase Assay (ELISA of peptide substrate phosphorylation); type: biochemical; conditions: purified JAK3 enzyme, 10 μM ATP, biotinylated peptide substrate, 1 hour at room temperature
T1 sequence (P52333 521-1111 limits assumed): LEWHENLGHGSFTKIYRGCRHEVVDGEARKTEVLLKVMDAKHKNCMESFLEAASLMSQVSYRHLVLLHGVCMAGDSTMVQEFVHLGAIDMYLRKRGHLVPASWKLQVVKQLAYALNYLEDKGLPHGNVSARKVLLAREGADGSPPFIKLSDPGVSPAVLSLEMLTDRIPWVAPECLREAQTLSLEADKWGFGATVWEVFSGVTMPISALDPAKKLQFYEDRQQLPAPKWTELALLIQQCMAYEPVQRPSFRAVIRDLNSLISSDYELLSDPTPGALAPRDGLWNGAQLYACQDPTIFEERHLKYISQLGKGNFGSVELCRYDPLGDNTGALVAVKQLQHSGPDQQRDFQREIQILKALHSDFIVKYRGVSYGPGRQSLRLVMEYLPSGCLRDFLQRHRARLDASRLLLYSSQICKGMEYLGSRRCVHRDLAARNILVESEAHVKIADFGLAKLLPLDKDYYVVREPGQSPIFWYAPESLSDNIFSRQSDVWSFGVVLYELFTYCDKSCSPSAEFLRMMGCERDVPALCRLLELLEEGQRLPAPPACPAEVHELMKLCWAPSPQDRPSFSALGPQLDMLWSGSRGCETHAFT
Summary of the method: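 Sf21-baculovirus-expressed JAK3 (JH1+JH2), glutathione-bead purified, with biotinylated peptide substrate (in buffer containing 10 μM ATP) in HEPES pH 7.5/MgCl2/DTT, 1 h RT. Product was captured on Neutravidin, detected with HRP anti-phosphotyrosine (PY99)/TMB, OD 450/650 nm. Triplicate 16-point half-log series from 200 μM gave IC50; otherwise % inhibition at 1 μM.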

IC50	Compound
30 nM	O=C(NCc1ccncc1)OC1CCn2c3ccccc3c3c4c(c5c6ccccc6n(c5c32)C1)C(=O)NC4=O (stereo not shown) [Cpd 47, 12,13-{2-[(pyridin-4-yl-methyl)carbamoyloxy]-butan-1,4-yl}-12,13-dihydro-5,7-dioxo-6H-indolo[2,3-a]pyrrolo[3,4-c]carbazole]
202 nM	O=C1NCc2c1c1c3ccccc3n3c1c1c2c2ccccc2n1CC(COC(=O)N1CCN(C(=O)OCc2ccccc2)CC1)C3 (stereo not shown) [Cpd 167, 12,13-(2-{[4-(benzyloxycarbonyl)piperazin-1-yl]carbonyloxymethyl}-propan-1,3-yl)-6,7,12,13-tetrahydro-5-oxo-5H-indolo[2,3-a]pyrrolo[3,4-c]carbazole]
67 nM	O=C1NC(=O)c2c1c1c3ccccc3n3c1c1c2c2ccccc2n1CC(O)(C(=O)N1CCN(c2ccc(O)cc2)CC1)C(O)C3 (stereo not shown) [Cpd 129, 12,13-(2-{[4-(4-hydroxy-phenyl)piperazin-1-yl]carbonyl}-2,3-dihydroxy-butan-1,4-yl)-12,13-dihydro-5,7-dioxo-6H-indolo[2,3-a]pyrrolo[3,4-c]carbazole]
144 nM	CC(C)NC(=O)OCC1Cn2c3ccccc3c3c4c(c5c6ccccc6n(c5c32)C1)C(=O)NC4 (stereo not shown) [Cpd 155]
17 nM	O=C1NC(=O)c2c1c1c3ccccc3n3c1c1c2c2ccccc2n1CC(O)(C(=O)NCCCN1CCOCC1)C(O)C3 (stereo not shown) [Cpd 120, 12,13-{2-[(3-morpholin-4-yl-prop-1-yl)carbamoyl]-2,3-dihydroxy-butan-1,4-yl}-12,13-dihydro-5,7-dioxo-6H-indolo[2,3-a]pyrrolo[3,4-c]carbazole]
29 nM	COCCNC(=O)OC1Cn2c3ccccc3c3c4c(c5c6ccccc6n(c5c32)CC1O)C(=O)NC4=O (stereo not shown) [Cpd 83, 12,13-{2-[(2-methoxy-ethyl)carbamoyloxy]-3-hydroxy-butan-1,4-yl}-12,13-dihydro-5,7-dioxo-6H-indolo[2,3-a]pyrrolo[3,4-c]carbazole]
66 nM	O=C1NC(=O)c2c1c1c3cc(-c4cncnc4)ccc3n3c1c1c2c2ccccc2n1CC(O)CC3 (stereo not shown) [Cpd 34, 3-pyrimidin-5-yl-12,13-(2-hydroxy-butan-1,4-yl)-12,13-dihydro-5,7-dioxo-6H-indolo[2,3-a]pyrrolo[3,4-c]carbazole]
45 nM	CC1(C)O[C@@H]2Cn3c4ccccc4c4c5c(c6c7ccccc7n(c6c43)C[C@H]2O1)C(=O)NC5 [Cpd 17, 12,13-[(4R,5R)-2,2-dimethyl-[1,3]dioxolo[4,5-b]butan-1,4-yl]-6,7,12,13-tetrahydro-5-oxo-5H-indolo[2,3-a]pyrrolo[3,4-c]carbazole]
1 nM	COC(=O)C1(O)Cn2c3ccccc3c3c4c(c5c6ccccc6n(c5c32)CC1O)C(=O)NC4=O (stereo not shown) [Cpd 12, 12,13-(2-methoxycarbonyl-2,3-dihydroxy-butan-1,4-yl)-12,13-dihydro-5,7-dioxo-6H-indolo[2,3-a]pyrrolo[3,4-c]carbazole]
13 nM	O=C1NC(=O)c2c1c1c3cc(-c4cnccn4)ccc3n3c1c1c2c2ccccc2n1CC(O)CC3 (stereo not shown) [Cpd 35, 3-pyrazin-2-yl-12,13-(2-hydroxy-butan-1,4-yl)-12,13-dihydro-5,7-dioxo-6H-indolo[2,3-a]pyrrolo[3,4-c]carbazole]
351 nM	COCCNCc1ccc2c(c1)c1c3c(c4c5ccccc5n5c4c1n2CC(O)C(O)C5)CNC3=O (stereo not shown) [Cpd 198, 3-[(2-methoxy-ethyl)aminomethyl]-12,13-(2,3-dihydroxy-butan-1,4-yl)-6,7,12,13-tetrahydro-5-oxo-5H-indolo[2,3-a]pyrrolo[3,4-c]carbazole]
27 nM	CN1CCN(C(=O)C2(O)Cn3c4ccccc4c4c5c(c6c7ccccc7n(c6c43)CC2O)C(=O)NC5=O)CC1 (stereo not shown) [Cpd 125, 12,13-{2-[(4-methyl-piperazin-1-yl)carbonyl]-2,3-dihydroxy-butan-1,4-yl}-12,13-dihydro-5,7-dioxo-6H-indolo[2,3-a]pyrrolo[3,4-c]carbazole]
171 nM	O=C1NCc2c1c1c3cc(Br)ccc3n3c1c1c2c2ccccc2n1C/C=C\C3 [Cpd 6, 3-bromo-12,13-(but-2-en-1,4-yl)-6,7,12,13-tetrahydro-5-oxo-5H-indolo[2,3-a]pyrrolol [3,4-c]carbazole]
54 nM	O=C1NC(=O)c2c1c1c3ccccc3n3c1c1c2c2ccccc2n1CC(O)(C(=O)N1CCOCC1)C(O)C3 (stereo not shown) [Cpd 121, 12,13-[2-(morpholin-4-yl-carbonyl)-2,3-dihydroxy-butan-1,4-yl]-12,13-dihydro-5,7-dioxo-6H-indolo[2,3-a]pyrrolo[3,4-c]carbazole]
41 nM	O=C1NC(=O)c2c1c1c3ccccc3n3c1c1c2c2ccccc2n1CC(OC(=O)N1CCN(CCN2CCCC2=O)CC1)CC3 (stereo not shown) [Cpd 57, 12,13-[2-({4-[2-(2-oxo-pyrrolidin-1-yl)ethyl]piperazin-1-yl}carbonyloxy)-butan-1,4-yl]-12,13-dihydro-5,7-dioxo-6H-indolo[2,3-a]pyrrolo[3,4-c]carbazole]
28 nM	O=C1NCc2c1c1c3ccccc3n3c1c1c2c2ccccc2n1CC(O)(COC(=O)N1CCc2ccccc2C1)C3 (stereo not shown) [Cpd 147, 12,13-{2-hydroxy-2-[(1,2,3,4-tetrahydro-isoquinolin-2-yl)carbonyloxymethyl]-propan-1,3-yl}-6,7,12,13-tetrahydro-5-oxo-5H-indolo[2,3-a]pyrrolo[3,4-c]carbazole]
25 nM	CN(C)CCN(C)C(=O)OCC1(O)Cn2c3ccccc3c3c4c(c5c6ccccc6n(c5c32)C1)C(=O)NC4 (stereo not shown) [Cpd 148, 12,13-(2-hydroxy-2-{[N-methyl-N-(2-dimethylamino-ethyl)]carbamoyloxymethyl}-propan-1,3-yl)-6,7,12,13-tetrahydro-5-oxo-5H-indolo[2,3-a]pyrrolo[3,4-c]carbazole]
> 200 nM	O=C1NCc2c1c1c3ccccc3n3c1c1c2c2ccccc2n1CC(O)(COC(=O)N1CCN(C2CCCCC2)CC1)C3 (stereo not shown) [Cpd 142, 12,13-{2-hydroxy-2-[(4-cyclohexyl-piperazin-1-yl)carbonyloxymethyl]-propan-1,3-yl}-6,7,12,13-tetrahydro-5-oxo-5H-indolo[2,3-a]pyrrolo[3,4-c]carbazole]
127 nM	O=C1NC(=O)c2c1c1c3ccccc3n3c1c1c2c2ccccc2n1CC(OC(=O)N1CCN(CCO)CC1)C(O)C3 (stereo not shown) [Cpd 104, 12,13-(2-{[4-(2-hydroxy-ethyl)piperazin-1-yl]carbonyloxy}-3-hydroxy-butan-1,4-yl)-12,13-dihydro-5,7-dioxo-6H-indolo[2,3-a]pyrrolo[3,4-c]carbazole]
516 nM	O=C1NC(=O)c2c1c1c3ccccc3n3c1c1c2c2ccccc2n1CC(OC(=O)N1CCN(CCN2CCOCC2)CC1)C(O)C3 (stereo not shown) [Cpd 94]
134 nM	O=C(NCCc1ccccn1)OC1Cn2c3ccccc3c3c4c(c5c6ccccc6n(c5c32)CC1O)C(=O)NC4=O (stereo not shown) [Cpd 82, 12,13-{2-[(2-pyridin-2-yl-ethyl)carbamoyloxy]-3-hydroxy-butan-1,4-yl}-12,13-dihydro-5,7-dioxo-6H-indolo[2,3-a]pyrrolo[3,4-c]carbozole]
97 nM	O=C(NCCN1CCCC1)OC1Cn2c3ccccc3c3c4c(c5c6ccccc6n(c5c32)CC1O)C(=O)NC4=O (stereo not shown) [Cpd 92, 12,13-{2-[(2-pyrrolidin-1-yl-ethyl)carbamoyloxy]-3-hydroxy-butan-1,4-yl}-12,13-dihydro-5,7-dioxo-6H-indolo[2,3-a]pyrrolo[3,4-c]carbazole]
1000 nM	O=C1NC(=O)c2c1c1c3ccccc3n3c1c1c2c2ccccc2n1CC(OC(=O)N1CCN(Cc2ccc4c(c2)OCO4)CC1)CC3 (stereo not shown) [Cpd 54, 12,13-(2-{[4-(benzo[1,3]dioxol-5-yl-methyl)piperazin-1-yl]carbonyloxy}-butan-1,4-yl)-12,13-dihydro-5,7-dioxo-6H-indolo[2,3-a]pyrrolo[3,4-c]carbazole]
8 nM	COCCNC(=O)OC1CCn2c3ccccc3c3c4c(c5c6ccccc6n(c5c32)C1)C(=O)NC4=O (stereo not shown) [Cpd 41, 12,13-{2-[(2-methoxy-ethyl)carbamoyloxy]-butan-1,4-yl}-12,13-dihydro-5,7-dioxo-6H-indolo[2,3-a]pyrrolo[3,4-c]carbazole]
135 nM	CN1CCN(Cc2ccc3c(c2)c2c4c(c5c6ccccc6n6c5c2n3CC(O)C(O)C6)CNC4=O)CC1 (stereo not shown) [Cpd 193, 3-(4-methyl-piperazin-1-ylmethyl)-12,13-(2,3-dihydroxy-butan-1,4-yl)-6,7,12,13-tetrahydro-5-oxo-5H-indolo[2,3-a]pyrrolo[3,4-c]carbazole]
14 nM	O=C1NCc2c1c1c3ccccc3n3c1c1c2c2ccccc2n1CCOCC3 [Cpd 29, 12,13-(3-oxa-pentan-1,5-yl)-6,7,12,13-tetrahydro-5-oxo-5H-indolo[2,3-a]pyrrolo[3,4-c]carbazole]
5 nM	O=C1NC(=O)c2c1c1c3ccccc3n3c1c1c2c2ccccc2n1CC(O)CC3 (stereo not shown) [Cpd 7, 12,13-(2-hydroxy-butan-1,4-yl)-12,13-dihydro-5,7-dioxo-6H-indolo[2,3-a]pyrrolo[3,4-c]carbazole]
61 nM	Cc1ccc(CNC(=O)OC2CCn3c4ccccc4c4c5c(c6c7ccccc7n(c6c43)C2)C(=O)NC5=O)cc1 (stereo not shown) [Cpd 45, 12,13-{2-[(4-methyl-benzyl)carbamoyloxy]-butan-1,4-yl}-12,13-dihydro-5,7-dioxo-6H-indolo[2,3-a]pyrrolo[3,4-c]carbazole]
